For assay [1], the target named is T1, transactivation domain of HPV11 E2 (TAD) (Human papillomavirus 11, UniProt P04015).
T1 construct: HPV11 E2 amino acids 2* -215 (*Met-1 removed); made in house; host or cells: E. coli BL21 (DE3)pLysS, plasmid pET23a(+)
Nature of the assay: HPV E2 transactivation domain (TAD) ligand displacement assay. The class given is binding. An excerpt: This assay measures the binding of a radiolabeled compound (“probe”) to the transactivation domain of HPV11 E2 (TAD). The protein binds to Ni-coated Flash plates, and the measured signal being proportional to the concentration of bound probe. If a test compound binds to the TAD, it will displace the probe, which will result in a lower signal.
(§1) HPV-11 TAD: HPV11 E2 amino acids 2* -215 (*Met-1 removed) with an amino terminal epitope tag derived from the T7 phage gene 10 protein and a C-terminal His tag (SEQ ID NO.2). Total MW is 27 kDa.
25 mM MOPS, pH 7.0; 100 mM NaCl; 1 mM DTT; 0.0025% Tween-20. The pH was verified before adding DTT and Tween, and was adjusted where necessary. […]
TAD was diluted to 300 nM in assay buffer and used 20 μL […] dilution per well. […] This has a measurable effect on signal: background but little effect on z′ or measured inhibition (J.-H. Zhang, et al., 1999, J. Biomolecular Screening v4(2), 67-73). […]
The assay was performed in 96-well FlashPlates (PE/NEN). […] Plates were then sealed with TopCount-compatible sealing film, shaken briefly, incubated at room temperature, then counted on the TopCount after 3 hrs and again at 20 hrs.
The assay was run as described in Example 6. For each inhibitor concentration, the percent inhibition observed was calculated and the resulting inhibition curve was fit to a logistic using SAS. […]

Assay [2] has as its target T1, transactivation domain of HPV11 E2 (TAD). Nature of the assay: isothermal titration calorimetry of probe binding to the TAD. Particulars: isothermal titration calorimetry with its non-tritiated homolog. The protocol:
Radiolabeled probe: The tritium labeled probe 1j binds to the TAD with a Kd of 40 nM, as determined by isothermal titration calorimetry with its non-tritiated homolog.
as §1

SMILES strings stand for the structures.

T1 sequence (P04015 2-215): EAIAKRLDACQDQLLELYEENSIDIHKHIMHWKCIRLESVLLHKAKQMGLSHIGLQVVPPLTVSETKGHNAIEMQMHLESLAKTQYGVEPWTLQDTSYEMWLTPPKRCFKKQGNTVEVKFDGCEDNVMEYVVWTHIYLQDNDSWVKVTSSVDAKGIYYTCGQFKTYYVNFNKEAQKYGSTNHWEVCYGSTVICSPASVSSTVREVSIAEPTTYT

Turning to `O=C(Nc1ccc2c(c1)OCO2)C1C(c2ccc(Cl)cc2)OC2(C(=O)c3ccccc3C2=O)C1C(=O)O` (racemic) [Compound 3h], the IC50 (as a rule, the concentration that gives 50% inhibition) was 4 ± 0.6 µM in assay [1] (counting at 20 hours, 50 nM TAD, 25 nM probe, FIG. 5) and ~10 µM in assay [1] (standard inhibitor, racemic mixture).
Take `CC(=O)NCc1ccc(N2C(=O)[C@H]3[C@@H](C2=O)[C@@]2(O[C@H]3c3ccc(Br)c(Br)c3)C(=O)c3cc(C)sc3C2=O)cc1` [Compound 1j]: binding in assay [2] was put at a Kd of 0.04 µM.

For the origin of these results see patent US6825176B2, “E2 displacement assay for identifying inhibitors of HPV” (Boehringer Ingelheim (Canada) Ltd., priority 2002, dated 2004).
